# In patent US9468225B2, “Oral compositions” (Symrise AG, priority 2013, dated 2016):
# Columns and labels:
# [1] = test system: human neuroblastoma cells (SH-SY5Y); experiment: Serotonin release by SH-SY5Y cells after 3-minute stimulation with alkamides (Serotonin-ELISA, normalized to DNA); type: cell-based; settings: for Serotonin release T/C [%]: relative to EtOH control, 3 min stimulation
# Description: (§1) The cell model used for the release of the neurotransmitters dopamine and serotonin are human neuroblastoma cells (SH-SY5Y, ATCC Number CRL-2266). Cultivation is performed at 37° C. and with a 5% CO2 content using a mixture containing at equal parts Eagle's Minimum Essential Medium (MEM) and F12 Medium (each having 10% FBS and 1% Penicillin/Streptomycin). To measure the release of dopamine and serotonin, the cells are harvested with trypsin and seeded, after a vitality check using trypan blue tests, in a defined cell number in 35 mm cell culture dishes.
# After a 3-minute stimulation of 1.25*10^6 human neuroblastoma cells (SH-SY5Y) with 300 μL Krebs-Ringer-HEPES buffer, 0.1% ascorbic acid, pH 6.2, with, or without, the addition of an alkamide (trans-Pellitorine, dihydropellitorine, spilanthol, wherein when adding the alkamide in concentrations of 0.001 μM, 0.1 μM 1 μM and 10 μM within the Krebs-Ringer-HEPES buffer is adjusted), the serotonin content is detected by means of an enzyme-based method of detection (Serotonin-ELISA sensitive, DLD Diagnostica, Hamburg, Germany). The cells are lysed with a buffer containing sodium lauryl sarcosinate and the DNA content is detected by means of a NanoQuant plate (Tecan, Ménnendorf, Switzerland) to normalize serotonin release.
# FIGS. 1a and 1b represent the release of serotonin after incubation with t-pellitorine (2) (FIG. 1A) in concentrations of 0.001 μM, 0.1 μM, 1 μM and 10 μM or other alkamides (FIG. 1B: 1=t-pellitorine, 2=dihydropellitorine, 3=spilanthol)). Results are represented in % relative to control (buffer with 0.1% ethanol) n=3, tR=2. Significant differences of control treatment were tested using a one-way ANOVA with a subsequent Holm-Sidak post hoc test and marked according to the following pattern: *p≦0.05; **p.≦0.01; ***p≦0.001.
# 3T3-L1 cells [2] = experiment: Long time lipid accumulation (Oil-Red O) in 3T3-L1 adipocytes; type: cell-based, murine; settings: 10 days treatment, vs ethanol control
# Description: The cell model used for short-term uptake of free fatty acids and long-term lipid accumulation in the adipocytes are murine fibroblasts (3T3-L1, ATTC Number CL-173) after the cells differentiated to form adipocytes. 3T3-L1 fibroblasts are cultivated at 37° C. and a 5% CO2 content with Dulbecco's Modified Eagle Medium (DMEM) having 10% FBS, 4% L-Glutamin and 1% Penicillin/Streptomycin (=basal medium). Adipocyte differentiation occurs two days after reaching confluence by adding 10 μg/L Insulin, 1 μM dexamethasone and 0.5 mM Isobutylmethylxanthin into the culture medium (=differentiation medium). After two days of cultivation in differentiation medium the adipocytes are allowed to mature for two further days by adding 10 μg/L insulin into the culture medium (=maturation medium). After having spent between three and five days in basal medium, the adipocytes are optimally differentiated and show by inclusion of lipid droplets the phenotype that is typical for adipocytes. Human colon cell line CaCo-2 (ATCC Number HTB-37) is used as a cell model for the uptake of free fatty acids by the small intestine after they have differentiated to form a phenotype corresponding to enterocytes. CaCo-2 cells are cultivated at 37° C. with a 5% CO2 content with Dulbecco's Modified Eagle Medium (DMEM) with 10% FBS, 2% L-glutamin and 1% penicillin/streptomycin. Enterocyte differentiation is performed by cultivating the cells in a period of 18 days after they reach confluence. After differentiation of the 3T3-L1 fibroblasts to form adipocytes the cells are treated for 10 days with trans-pellitorine in concentrations of 0.001 μM, μM 0.1 μM, 1 μM and 10 μM and a final concentration of 10 μg/L insulin. […] The dye Oil-Red 0 is subsequently removed by means of 100% isopropanol, and absorption of the Oil-Red 0 solution, which behaves proportionally to the lipid droplets of the cells, was determined by means of a microplate reading device (Tecan, Ménnendorf, Switzerland). […]
# 3T3-L1 cells [3] = experiment: Fatty acid uptake (BODIPY fatty acid) in 3T3-L1 adipocytes; type: cell-based, murine; settings: for Fatty acid uptake T/C [%]: 30 min preincubation, area below the curve over 60 min vs ethanol control
# Description: (§2) The cell model used for short-term uptake of free fatty acids and long-term lipid accumulation in the adipocytes are murine fibroblasts (3T3-L1, ATTC Number CL-173) after the cells differentiated to form adipocytes. 3T3-L1 fibroblasts are cultivated at 37° C. and a 5% CO2 content with Dulbecco's Modified Eagle Medium (DMEM) having 10% FBS, 4% L-Glutamin and 1% Penicillin/Streptomycin (=basal medium). Adipocyte differentiation occurs two days after reaching confluence by adding 10 μg/L Insulin, 1 μM dexamethasone and 0.5 mM Isobutylmethylxanthin into the culture medium (=differentiation medium). After two days of cultivation in differentiation medium the adipocytes are allowed to mature for two further days by adding 10 μg/L insulin into the culture medium (=maturation medium). After having spent between three and five days in basal medium, the adipocytes are optimally differentiated and show by inclusion of lipid droplets the phenotype that is typical for adipocytes. Human colon cell line CaCo-2 (ATCC Number HTB-37) is used as a cell model for the uptake of free fatty acids by the small intestine after they have differentiated to form a phenotype corresponding to enterocytes. CaCo-2 cells are cultivated at 37° C. with a 5% CO2 content with Dulbecco's Modified Eagle Medium (DMEM) with 10% FBS, 2% L-glutamin and 1% penicillin/streptomycin. Enterocyte differentiation is performed by cultivating the cells in a period of 18 days after they reach confluence.
# After differentiation of 3T3-L1 fibroblasts to form adipocytes, 65000 cells per well are seeded in a 96 well plate and incubated at 37° C. for four hours with basal medium (DMEM+10% fetal bovine serum) and then incubated for an hour with serum-free medium. The cells were pre-treated with 0.1 μM, 1 μM and 10 μM t-pellitorine for 30 minutes. The uptake of free fatty acids into the cells was measured by means of the fluorescence-marked fatty acid BODIPY® (QBT Fatty Acid Uptake Corporation, Germany) with a fluorescence microplate reading device (Tecan, Ménnendorf, Switzerland) every 20 seconds for a period of 60 minutes.
# The results are represented as an area below the curve after measuring of 60 minutes in comparison with control (1, buffer with 0.1% Ethanol). n=3, tR=2-3. Significant differences between the treatment and control were tested by means of an one-way ANOVA followed by a Holm-Sidak post hoc test and marked according to the following pattern: *p≦0.05; **p.≦0.01; ***p≦0.001
# [4] = test system: human neuroblastoma cells (SH-SY5Y); experiment: Dopamine release by SH-SY5Y cells after 3-minute stimulation with trans-pellitorine (Dopamin-ELISA, normalized to DNA); type: cell-based; settings: for Dopamine release T/C [%]: relative to EtOH control, 3 min stimulation
# Description: as §1
# After a 3-minute stimulation of 1.25*10^6 of human neuroblastoma cells (SH-SY5Y) with 350 μL Krebs-Ringer-HEPES Puffer (1), pH 5, with or without the addition of trans-pellitorine (2) in concentrations of 0.001 μM, 0.1 μM, 1 μM and 10 μM the supernatant is acidified with 1 N HCl and the dopamine content is determined by means of an enzyme-based method of detection (Dopamin-ELISA, DLD Diagnostica, Hamburg, Germany). The cells are lysed with a buffer containing sodium lauryl sarcosinate and the DNAN content is determined by means of a NanoQuant plant (Tecan, Ménnendorf, Switzerland) for normalization of dopamine release. During an ethanol control (EtOH control) no trans-pellitorine is added to the Krebs-Ringer-HEPES buffer, but ethanol is added to the buffer such that a 0.1% ethanolic Krebs-Ringer-HEPES buffer solution is obtained.
# FIG. 2 represents the release of dopamin after incubation with t-pellitorine (2) in concentrations of 0.001 μM, 0.1 μM, 1 μM and 10 μM. The results are represented in a […] expressed in percent (buffer with 0.1% ethanol). n=3, tR=2. Significant differences between the treatments and control were tested using a one-way ANOVA with a subsequent Holm-Sidak post hoc test and marked according to the following pattern: *p≦0.05; **p.≦0.01; ***p≦0.001.
# [5] = test system: differentiated CaCo-2 cells; experiment: Fatty acid uptake (BODIPY fatty acid) in differentiated CaCo-2 cells; type: cell-based, human; settings: for Fatty acid uptake T/C [%]: 30 min preincubation, area below the curve over 60 min vs ethanol control
# Description: as §2, with “confluence. After differentiation of the CaCo-2 cells to form an enterocyte phenotype, the cells are incubated with serum-free medium for an hour. Subsequently the cells are pre-treated with 0.1 μM, 1 μM and 10 μM t-pellitorine for 30 minutes and the free fatty acid uptake into the cells was measured by means of the fluorescence marked fatty acid BODIPY® (QBT Fatty Acid Up-take Corporation, Germany) at a fluorescence microplate reading device (Tecan, Ménnendorf, Switzerland) every 20 seconds for a period of 60 minutes. […] The results are represented as an area below the curve after measuring for 60 minutes in comparison to control (1, buffer with 0.1% ethanol). n=3, tR=2-3. Significant differences between the treatment and control were tested by means of a one-way ANOVA followed by a Holm-Sidak post hoc test and marked according to the following pattern: *p≦0.05; **p.≦0.01; ***p≦0.001” for “confluence.”
smiles,measurement,setting,value
"CCCCCCC/C=C/C(=O)NCC(C)C [Dihydropellitorine, 2E-decenoic acid-N-isobutylamide]",Serotonin release T/C [%],[1]; 0.001 μM,140.9%
same,Serotonin release T/C [%],[1]; 0.1 μM,87.41%
same,Serotonin release T/C [%],[1]; 1 μM,124.3%
same,Serotonin release T/C [%],[1]; 10 μM,144.5%
"C/C=C/C=C\CC/C=C/C(=O)NCC(C)C [Spilanthol, 2E,6Z,8E-decatrienoic acid N-isobutylamide]",Serotonin release T/C [%],[1]; 0.001 μM,105.6%
same,Serotonin release T/C [%],[1]; 0.1 μM,129.9%
same,Serotonin release T/C [%],[1]; 1 μM,103.8%
same,Serotonin release T/C [%],[1]; 10 μM,91.77%
"CCCCC/C=C/C=C/C(=O)NCC(C)C [trans-pellitorine, 2E,4E-decadienic acid-N-isobutylamide]",Lipid accumulation T/C [%],3T3-L1 cells [2]; 0.001 μM,94.60%
same,Lipid accumulation T/C [%],3T3-L1 cells [2]; 0.1 μM,92.94%
same,Lipid accumulation T/C [%],3T3-L1 cells [2]; 1 μM,93.46%
same,Serotonin release T/C [%],[1]; 0.001 μM,105.3%
same,Serotonin release T/C [%],[1]; 0.1 μM,140.2%
same,increase of the release of serotonin,"[1]; 100 nM, SH-SY5Y cells",40%
same,Serotonin release T/C [%],[1]; 1 μM,128.8%
same,Serotonin release T/C [%],[1]; 10 μM,93.02%
same,Fatty acid uptake T/C [%],3T3-L1 cells [3]; 0.1 μM,93.84%
same,Fatty acid uptake T/C [%],3T3-L1 cells [3]; 1 μM,96.63%
same,Fatty acid uptake T/C [%],3T3-L1 cells [3]; 10 μM,91.95%
same,reduction of fatty acid uptake in adipocytes,3T3-L1 cells [3]; preincubation with 10 μM,9%
same,Dopamine release T/C [%],[4]; 0.001 μM,99.68%
same,Dopamine release T/C [%],[4]; 0.1 μM,182.7%
same,increase of dopamine release,"[4]; 100 nM, SH-SY5Y cells",80%
same,Dopamine release T/C [%],[4]; 1 μM,106.8%
same,Dopamine release T/C [%],[4]; 10 μM,127.3%
same,Fatty acid uptake T/C [%],[5]; 0.1 μM,107.8%
same,Fatty acid uptake T/C [%],[5]; 1 μM,98.7%
same,Fatty acid uptake T/C [%],[5]; 10 μM,97.8%
same,Fatty acid uptake T/C [%],[5]; 100 μM,86.0%
same,reduction of free fatty acid uptake in an enterocyte model,"[5]; preincubation with 100 μM, 30 minutes",14%
